Consider 43 molecules from ChEMBL document CHEMBL4118258, “2-Substituted-1-(2-morpholinoethyl)-1H-naphtho[2,3-d]imidazole-4,9-diones: Design, synthesis and antiproliferative activity” (Bioorg Med Chem Lett, 2018).

pIC50: −log10 of the molar value.

One experiment has as its system MCF7. The experiment is described as follows: Antiproliferative activity against human MCF7 cells after 72 hrs by MTT assay. In kind it is functional, cell-based. The settings on record: MCF7, 72 h. Background: Formazan colour is commonly taken as a measure of viable cells.
The next experiment deals with HeLa. As to the kind of experiment: Antiproliferative activity against human HeLa cells after 72 hrs by MTT assay. In kind it is functional, cell-based.
For the next experiment, the system named is L929. The experiment is described as follows: Antiproliferative activity against mouse L929 cells after 72 hrs by MTT assay. The conditions noted are these: L929, 72 h.
The subject of the next experiment is A549. As to the kind of experiment: cells. The settings on record: Homo sapiens, A549, 72 h.

Description for A549: Antiproliferative activity against human A549 cells after 72 hrs by MTT assay

As for `O=C1c2ccccc2C(=O)c2c1nc(-c1ccc(F)c(Cl)c1)n2CCN1CCOCC1`, the negative logarithm of the IC50 (pIC50) was 4.32 in the experiment on MCF7, 4.28 in the experiment with HeLa, 4.35 in the experiment with L929 and 4.51 in the experiment on A549.
The corresponding values for `C[N+]1(CCn2c(-c3ccccc3)nc3c2C(=O)c2ccccc2C3=O)CCOCC1` are 3.74, less than 3.70, less than 3.70 and less than 3.70.
`O=C1c2ccccc2C(=O)c2c1nc(-c1ccco1)n2CCN1CCOCC1`: the pIC50 in the experiment with MCF7 is 3.77; in the experiment on HeLa, 3.72; in the experiment with L929, 3.76; in the experiment on A549 it was 3.83.
For `C[N+]1(CCn2c(C(F)(F)F)nc3c2C(=O)c2ccccc2C3=O)CCOCC1`, in that order: 3.86, 3.94, less than 3.70 and 4.03.
For `COc1ccc(-c2nc3c(n2CCN2CCOCC2)C(=O)c2ccccc2C3=O)cc1`, the negative logarithm of the IC50 (pIC50) with MCF7 is 4.06; in the experiment with HeLa, 3.95; in the experiment on L929, 4.00; with A549 it was 4.07.
For `O=C1c2ccccc2C(=O)c2c1nc(/C=C/c1ccccc1)n2CCN1CCOCC1`, in that order: 4.23, 4.09, 3.92 and 4.11.
On to `O=C1c2ccccc2C(=O)c2c1nc(-c1ccncc1)n2CCN1CCOCC1`, for which the pIC50 was 3.85 in the experiment with MCF7, 3.82 in the experiment on HeLa, 3.94 in the experiment on L929 and 3.92 in the experiment with A549.
As for `O=C1c2ccccc2C(=O)c2c1nc(C(F)(F)F)n2CCN1CCOCC1`, the negative logarithm of the IC50 (pIC50) in the experiment on MCF7 is 4.75; in the experiment on HeLa it was 4.82; with L929, 4.79; with A549, 4.80.
Turning to `Cc1nc2c(n1CCN1CCOCC1)C(=O)c1ccccc1C2=O`, the pIC50 in the experiment with MCF7 is less than 3.70; with HeLa, less than 3.70; with L929 it was 3.93; with A549, 3.98.
Consider `CC(C)Cc1nc2c(n1CCN1CCOCC1)C(=O)c1ccccc1C2=O`, for which the pIC50 in the experiment on MCF7 is less than 3.70; with HeLa it was 3.74; with L929, 3.80; in the experiment with A549, 4.59.
With `COc1ccc(-c2nc3c(n2CC[N+]2(C)CCOCC2)C(=O)c2ccccc2C3=O)cc1Cl`, the pIC50 with MCF7 was less than 3.70; with HeLa, 4.01; in the experiment on L929 it was less than 3.70; with A549, 3.76.
`CC(C)c1nc2c(n1CCN1CCOCC1)C(=O)c1ccccc1C2=O`: the negative logarithm of the IC50 (pIC50) is 3.91 in the experiment on MCF7, 3.90 in the experiment with HeLa, 4.10 in the experiment with L929 and 4.49 with A549.
For `O=C1c2ccccc2C(=O)c2c1nc(-c1ccsc1)n2CCN1CCOCC1`, the negative-log IC50 (pIC50) in the experiment on MCF7 was 3.94; with HeLa, 3.87; in the experiment on L929, 3.91; with A549, 4.68.
For the molecule `O=C1c2ccccc2C(=O)c2c1nc(C1CC1)n2CCN1CCOCC1`, the pIC50 in the experiment with MCF7 was 4.19; with HeLa, 4.21; with L929 it was 4.40; in the experiment with A549, 4.44.
Take `Cc1ccccc1-c1nc2c(n1CCN1CCOCC1)C(=O)c1ccccc1C2=O`: the pIC50 in the experiment on MCF7 was 3.94; with HeLa, 3.92; with L929 it was 4.10; in the experiment on A549 it was 4.63.
The corresponding values for `O=C1C(Cl)=C(NCCN2CCOCC2)C(=O)c2nccnc21` are less than 3.70, less than 3.70, 3.83 and 3.80.
For `O=C1c2ccccc2C(=O)c2c1nc(-c1ccccc1)n2CCN1CCOCC1`, the pIC50 in the experiment on MCF7 was 4.15; in the experiment on HeLa it was 4.21; in the experiment with L929, 4.39; in the experiment on A549, 4.61.
For `Cc1ccc(CCc2nc3c(n2CCN2CCOCC2)C(=O)c2ccccc2C3=O)o1`, in that order: 3.78, 4.05, 4.02 and 4.14.
For `O=C1c2ccccc2C(=O)c2c1nc(-c1cccc(F)c1)n2CCN1CCOCC1`, in that order: 3.97, 3.88, 3.88 and 4.06.
On to `CCC(C)c1nc2c(n1CCN1CCOCC1)C(=O)c1ccccc1C2=O` (configuration not stated), for which the pIC50 in the experiment with MCF7 is 3.91; in the experiment with HeLa it was less than 3.70; in the experiment with L929, 4.00; in the experiment with A549, 3.76.
Consider `O=C1c2ccccc2C(=O)c2c1nc(-c1cccc3ccccc13)n2CCN1CCOCC1`, for which the pIC50 was 4.52 in the experiment on MCF7, 4.72 in the experiment on HeLa, 4.39 in the experiment with L929 and 4.78 with A549.
Turning to `CC(C)(C)c1nc2c(n1CCN1CCOCC1)C(=O)c1ccccc1C2=O`, the pIC50 with MCF7 is 3.82; in the experiment on HeLa it was 4.05; in the experiment with L929, 4.07; in the experiment with A549, 4.66.
The corresponding values for `O=C1c2ccccc2C(=O)c2c1nc(C1CCC1)n2CCN1CCOCC1` are 3.98, 4.00, 4.07 and 4.14.
For `O=C1c2ccccc2C(=O)c2c1nc(-c1ccc(-c3nc4c(n3CCN3CCOCC3)C(=O)c3ccccc3C4=O)cc1)n2CCN1CCOCC1`, in that order: 4.41, 4.10, 3.92 and 4.20.
On to `CCCCc1nc2c(n1CCN1CCOCC1)C(=O)c1ccccc1C2=O`, for which the negative-log IC50 (pIC50) was 3.95 in the experiment with MCF7, 3.78 in the experiment on HeLa, less than 3.70 in the experiment with L929 and 3.97 in the experiment on A549.
For `C[N+]1(CCn2c(-c3ccsc3)nc3c2C(=O)c2ccccc2C3=O)CCOCC1`, in that order: 3.88, 3.80, 3.88 and 3.94.
The corresponding values for `c1c2ncn(CCN3CCOCC3)c2cc2ncn(CCN3CCOCC3)c12` are less than 3.70, less than 3.70, less than 3.70 and less than 3.70.
The corresponding values for `COc1ccc(-c2nc3c(n2CCN2CCOCC2)C(=O)c2ccccc2C3=O)cc1Cl` are 4.97, 5.08, 4.17 and 5.37.
Regarding `C[N+]1(CCn2c(-c3cccc(F)c3)nc3c2C(=O)c2ccccc2C3=O)CCOCC1`, the negative-log IC50 (pIC50) with MCF7 was 3.78; in the experiment with HeLa, 3.78; in the experiment with L929, less than 3.70; in the experiment with A549, 3.78.
`O=C1c2ccccc2C(=O)c2c1nc(-c1cccc(C(F)(F)F)c1)n2CCN1CCOCC1`: the pIC50 in the experiment with MCF7 was 3.87; in the experiment on HeLa, 3.73; with L929, 4.14; in the experiment on A549 it was 4.48.
For `Cc1cc2ncn(CCN3CCOCC3)c2cc1C`, in that order: 3.74, less than 3.70, 3.73 and 3.95.
For `O=C1c2ccccc2C(=O)c2c1nc(-c1ccc(Cl)c(C(F)(F)F)c1)n2CCN1CCOCC1`, the pIC50 is 3.85 in the experiment with MCF7, 3.92 in the experiment with HeLa, 3.95 with L929 and 4.34 with A549.
For `CCCc1nc2c(n1CCN1CCOCC1)C(=O)c1ccccc1C2=O`, in that order: 4.02, 4.02, 4.10 and 4.43.
The corresponding values for `O=C1c2ccccc2C(=O)c2c1nc(-c1cnccn1)n2CCN1CCOCC1` are 4.27, 4.10, 4.30 and 4.11.
The corresponding values for `CCc1nc2c(n1CCN1CCOCC1)C(=O)c1ccccc1C2=O` are 3.75, 3.84, 3.97 and 4.07.
As to `O=C1c2ccccc2C(=O)c2c1nc(-c1cccs1)n2CCN1CCOCC1`, the negative-log IC50 (pIC50) is 3.86 in the experiment with MCF7, 3.76 with HeLa, 3.75 in the experiment with L929 and 4.04 with A549.
The corresponding values for `O=C1c2ccccc2C(=O)c2c1nc(C1CCCCC1)n2CCN1CCOCC1` are less than 3.70, less than 3.70, 4.10 and 4.12.
In the case of `CC(C)c1ccc(-c2nc3c(n2CCN2CCOCC2)C(=O)c2ccccc2C3=O)cc1`, the negative logarithm of the IC50 (pIC50) in the experiment with MCF7 is 3.97; with HeLa, 4.00; in the experiment on L929 it was 4.14; with A549, 4.15.
As for `CCC(CC)c1nc2c(n1CCN1CCOCC1)C(=O)c1ccccc1C2=O`, the negative-log IC50 (pIC50) was 3.97 in the experiment on MCF7, 4.02 with HeLa, 4.10 in the experiment with L929 and 4.24 with A549.
With `CC(C)c1ccc(CC(C)c2nc3c(n2CCN2CCOCC2)C(=O)c2ccccc2C3=O)cc1` (configuration not stated), the pIC50 is 3.96 with MCF7, 3.91 in the experiment with HeLa, less than 3.70 in the experiment with L929 and less than 3.70 with A549.
On to `O=C1c2ccccc2C(=O)c2c1nc(-c1cccnc1)n2CCN1CCOCC1`, for which the pIC50 was 3.78 in the experiment on MCF7, 3.96 with HeLa, 4.35 in the experiment with L929 and 4.42 with A549.
The corresponding values for `O=C1c2ccccc2C(=O)c2c1nc(-c1ccccn1)n2CCN1CCOCC1` are 4.42, 3.98, 3.93 and 4.49.
For `C[N+]1(CCn2c(-c3ccccn3)nc3c2C(=O)c2ccccc2C3=O)CCOCC1`, the negative logarithm of the IC50 (pIC50) was 3.85 in the experiment on MCF7, 3.97 in the experiment with HeLa, 3.97 in the experiment on L929 and 3.85 with A549.

The term pIC50 denotes −log10 of the IC50, conventionally taken in molar units. Read a low pIC50 as a large IC50.
